Source: patent US8129527B2, “Analogs of dehydrophenylahistins and their therapeutic use” (Nereus Pharmacuticals, Inc., priority 2006, dated 2012)

Legend:
[1] = system: NCI-H292 non-small cell lung carcinoma; assay: Cell growth inhibition assay, resazurin (Example 11); type: cell-based; details: Homo sapiens, 48 hours, mean ± SD where n ≧ 3, ** n = 1
Procedure: (§1) The growth inhibitory activity of NPI-2421, NPI-2463, NPI-2503 and NPI-2504 were determined against selected human (colorectal adenocarcinoma, HT-29; breast adenocarcinoma, MDA-MB-231; non-small cell lung carcinoma, NCI-H292 and prostate carcinomas, PC-3 and DU 145) and mouse (melanoma, B16-F10) tumor cell lines.
(§2) HT-29 (HTB-38), MDA-MB-231 (HTB-26), NCI-H292 (CRL-1848), B16-F10 (CRL-6475), PC-3 (CRL-1435) and DU 145 (HTB-81) cells were all purchased from the ATCC. The cell lines were maintained in their respective ATCC recommended culture media and cultured in an incubator at 37° C. in 5% CO2 and 95% humidified air.
(§3) 20 mM stock solutions of compounds were prepared in 100% DMSO and stored at −80° C. 10× concentrated serial dilutions of the compounds were prepared in B16-F10 cell culture medium for final concentrations ranging from 20 μM to […]. Ten μl volumes of the 10× serial dilutions were added to the test wells in triplicate and the plates returned to the incubator for 48 hours. The final concentration of DMSO was 0.25% in all samples.
(§4) Following 48 hours of drug exposure, 10 μl of 0.2 mg/ml resazurin (obtained from Sigma-Aldrich Chemical Co.) in Mg^2+, Ca^2+ free phosphate buffered saline was added to each well and the plates were returned to the incubator for 3-6 hours. […] Resazurin dye in medium without cells was used to determine the background, which was subtracted from the data for all experimental wells.

B16-F10 melanoma = assay: as above; type: cell-based; details: Mus musculus, 48 hours, mean ± SD where n ≧ 3
Procedure: as §1, §2, §3, §4

[2] = system: DU 145 prostate carcinoma; assay: as above; type: cell-based; details: Homo sapiens, 48 hours
Procedure: as §1, §2, §3, §4

PC-3 prostate carcinoma = assay: as above; type: cell-based; details: Homo sapiens, 48 hours, mean ± SD where n ≧ 3, ** n = 1
Procedure: as §1, §2, §3, §4

[3] = system: MDA-MB-231 breast adenocarcinoma; assay: as above; type: cell-based; details: Homo sapiens, 48 hours, mean ± SD where n ≧ 3
Procedure: as §1, §2, §3, §4

[4] = system: HT-29 colorectal adenocarcinoma; assay: as above; type: cell-based; details: Homo sapiens, 48 hours, mean ± SD where n ≧ 3
Procedure: as §1, §2, §3, §4

HuVECs = assay: as above; type: cell-based, human; details: for EC50: Homo sapiens, HuVEC, 48 hours, mean values of two independent experiments; for cytotoxicity against HuVECs: in words
Procedure: The growth inhibitory activity of NPI-2421 and NPI-2463 were determined against human umbilical […] endothelial cells, HuVECs.
HuVECs (Cambrex Biosciences; CC2519A) were maintained in EGM-2 medium at 37° C. in 5% CO2 and 95% humidified air.
For cell growth inhibition assays, HuVECs were seeded at 1×10^3 cells/well in 90 μl complete media into a Corning 3904 black-walled, clear-bottom tissue culture plates and the plates were incubated overnight to allow cells to establish and enter log phase growth. 20 mM stock solutions of compounds were prepared in 100% DMSO and stored at −80° C. […] Ten μl volumes of the 10× serial dilutions were added to the test wells in triplicate and the plates returned to the incubator for 48 hours. The final concentration of DMSO was 0.25% in all samples.
as §4

[5] = system: MES-SA human uterine sarcoma; assay: as above; type: cell-based; details: mean ± standard deviation of three independent experiments
Procedure: (§5) Human uterine sarcoma (MES-SA; CRL-1976), its multidrug resistant derivative (MES-SA/Dx5; CRL-1977), human acute promyelocytic leukemia cells (HL-60; CCL-240) and its multidrug resistant derivative (HL-60/MX2; CRL-2257) were purchased from ATCC and maintained in appropriate culture media. The cells were cultured in an incubator at 37° C. in 5% CO2 and 95% humidified air.
(§6) For cell growth inhibition assays, MES-SA and MES-SA/Dx5 cells were both seeded at 3×10^3 cells/well in 90 μl complete media into 96 well (Corning; 3904) black-walled, clear-bottom tissue culture plates and the plates were incubated overnight to allow cells to establish and enter log phase growth. HL-60 and HL-60/MX2 cells were both seeded at 5×10^4 cells/well in 90 μl complete media into 96 well plates on the day of compound addition. 20 mM stock solutions of the compounds were prepared in 100% DMSO and stored at −80° C. […] Ten μl volumes of the 10× serial dilutions were added to the test wells in triplicate and the plates returned to the incubator for 48 hours. The final concentration of DMSO was 0.25% in all samples.
as §4
(§7) The multidrug resistant MES-SA/Dx5 tumor cell line was derived from the human uterine sarcoma MES-SA tumor cell line and expresses elevated P-Glycoprotein (P-gp), an ATP dependent efflux pump. The data in Table 19 summarize the growth inhibitory effects of NPI-2421, NPI-2463, NPI-2503, NPI-2504 and NPI-2506 against MES-SA and its multidrug resistant derivative MES-SA/Dx5. Paclitaxel, a known substrate of the P-gp pump was included as a control.

HT-29 cells = assay: Additional cytotoxicity assays, resazurin (Table 3.1); type: cell-based, human; details: Table 3.1
Summary of the method: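 Cells exposed 48 hours to compounds at final concentrations 2.0×10^−5 M to 2.0×10^−10 M, in triplicate. Viability then read as resazurin fluorescence after 3-4 hours with dye; cell-free dye background subtracted.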

[6] = system: HL-60/MX2 multidrug resistant; assay: Cell growth inhibition assay, resazurin (Example 11); type: cell-based, human; details: for EC50: Homo sapiens, HL60/MX2, HL-60/MX2, mean values of two independent experiments; for cytotoxic activity against both HL-60 and HL-60/MX2: in words; for Fold change: ratio of EC50 values (HL-60/MX2:HL-60)
Procedure: as §5, §6, §4
(§8) HL-60/MX2 is a multidrug resistant tumor cell line derived from the human promyelocytic leukemia cell line, HL-60 and expresses reduced topoisomerase II activity. The data presented in Table 20 summarize the growth inhibitory effects of NPI-2421, NPI-2463, NPI-2503, NPI-2504 and NPI-2506 against HL-60 and its multidrug resistant derivative HL-60/MX2. Mitoxantrone, the topoisomerase II targeting agent was included as a control.

[7] = system: MES-SA/Dx5 multidrug resistant; assay: as above; type: cell-based, human; details: for EC50: Homo sapiens, MES-SA/Dx5, mean ± standard deviation of three independent experiments; for cytotoxic activity against both MES-SA and MES-SA/Dx5: in words; for Fold change: ratio of EC50 values (MES-SA/Dx5:MES-SA)
Procedure: as §5, §6, §4, §7

[8] = system: HL-60 human acute promyelocytic leukemia cells; assay: as above; type: cell-based; details: mean values of two independent experiments
Procedure: as §5, §6, §4, §8

[9] = system: HT-29 human colorectal carcinoma cells; assay: Cell growth inhibition assay, resazurin (Table 3.2); type: cell-based; details: Table 3.2, HT-29 cells, read-out: EC50 (M) Mean
Summary of the method: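 HT-29 cells seeded at 5×10^3/well overnight, then exposed in triplicate to compounds at final 20 μM to […] (0.25% DMSO) for 48 h at 37° C. Viability read by resazurin reduction after 3-4 h further incubation, with cell-free dye background subtracted.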

[10] = system: B16-F10 murine melanoma cells; assay: B16-F10 Metastatic Murine Melanoma Model; type: in vivo, B6D2F1 mice; details: monotherapy, lung surface metastases day 16
Procedure: (§9) The animals used were: female nude mice (nu/ni) (MDA-231 study) or B6D2F1 (B16-F10 studies) mice between 5 and 6 weeks of age (˜20 g, Harlan); group size was 10 mice per group unless otherwise indicated.
(§10) The cell lines used were: MDA-MB-231 human breast tumor and B16-F10 murine melanoma cells.
(§11) NPI compounds were administered as monotherapy via the intraperitoneal route at the doses indicated for the individual study; for the combination studies the selected reference chemotherapy agents were injected 15-30 min prior to the NPI compound.
Mice received B16-F10 cells (prepared from an in vitro cell culture of B16-F10 cells) by the iv route on Day 0. On Day 1 mice were randomized into treatment and control groups and treatment commenced. Mice were weighed twice weekly, starting on Day 1. All mice are sacrificed on Day 16, the lungs removed, weighed and the surface colonies counted. Results are expressed as mean colonies of treated mice/mean colonies of control mice (T/C)×100%). The metastasis growth inhibition (MGI) is this number subtracted from 100%. Paclitaxel was the standard chemotherapy agent used in this study.
In this model unless otherwise noted for the individual study, the test compounds were administered via the intraperitoneal route on Days 1-5 (qdx5); paclitaxel was administered intravenously on Days 1-5(qdx5).

[11] = system: MDA-231 human breast tumor; assay: MDA-231 Human Breast Tumor Orthotopic Xenograft Model (mammary fat pad); type: in vivo, nude mice; details: Breast MDA-231 (1 study); Paclitaxel qdx5 alone
Procedure: as §9, §10, §11
Female nude mice were injected in the mammary fat pad with 2×10^6 MDA-231 cells harvested from in vitro cell culture. When the tumor size reached 5 mm×5 mm (about 14-28 days) the animals were matched into treatment and control groups. The study then proceeded as described for the HT-29 model, using paclitaxel as the standard chemotherapy agent.
In this model unless otherwise noted for the individual study, the test compounds were administered via the intraperitoneal route on Days 1, 4, 8, 11 and 15 (q3dx5); paclitaxel was administered via the intraperitoneal route on Days 1-5 (qdx5).
This model involves the placement of the human tumor tissue into the mouse mammary fat pad, a surrogate of the natural environment. In this manner the possibility of a positive effect due to a specific action on the subcutaneous vascular bed is avoided.

Row | EC50 [1] | EC50 (B16-F10 melanoma) | EC50 [2] | EC50 (PC-3 prostate carcinoma) | EC50 [3] | EC50 [4] | EC50 [5] | EC50 [6] | EC50 [8] | Structure (SMILES) | EC50 (HuVECs) | cytotoxicity against HuVECs (HuVECs) | cytotoxic activity against both HL-60 and HL-60/MX2 [6] | Fold change [6] | EC50 [7] | cytotoxic activity against both MES-SA and MES-SA/Dx5 [7] | Fold change [7] | other results
1 | 41 nM | 19 nM | 25 nM | > 2000 nM | 20 ± 6 nM | 21 ± 9 nM | 12 ± 3 nM | 14 nM | 23 nM | CC(C)(C)c1ocnc1/C=c1\[nH]c(=O)/c(=C/c2ccccc2)[nH]c1=O [Compound 2421, tBu-delta-PLH-oxazole] | 12 nM | cytotoxic against HuVECs | retained cytotoxic activity | 0.6 | 17 ± 4 nM | retained equivalent cytotoxic activity | 1.4 | EC50 (HT-29 cells; Homo sapiens, HT-29, read-out: EC50 (M) Mean): 2.22e-08 M; % cytotox Mean (HT-29 cells): 88%
2 | 24 ± 11 nM | 14 ± 5 nM | 32 nM | 13 ± 5 nM | 25 ± 9 nM | 16 ± 3 nM | 12 ± 4 nM | 14 nM | 26 nM | CC(C)(C)c1ocnc1/C=c1\[nH]c(=O)/c(=C/c2cccc(F)c2)[nH]c1=O [Compound 2463, tBu-Oxadelta-PLH-m-F] | 10 nM | cytotoxic against HuVECs | retained cytotoxic activity | 0.5 | 14 ± 3 nM | retained equivalent cytotoxic activity | 1.2 | EC50 [9]: 1.71e-08 M

Row | Structure (SMILES) | EC50 [1] | EC50 (B16-F10 melanoma) | EC50 [2] | EC50 (PC-3 prostate carcinoma) | EC50 [3] | EC50 [4] | EC50 [5] | EC50 [6] | EC50 [8] | EC50 (HuVECs) | cytotoxicity against HuVECs (HuVECs) | cytotoxic activity against both HL-60 and HL-60/MX2 [6] | Fold change [6] | EC50 [7] | cytotoxic activity against both MES-SA and MES-SA/Dx5 [7] | Fold change [7] | other results
3 | CC(=O)O[C@H]1C(=O)[C@@]2(C)[C@H]([C@H](OC(=O)c3ccccc3)[C@]3(O)C[C@H](OC(=O)[C@H](O)[C@@H](NC(=O)c4ccccc4)c4ccccc4)C(C)=C1C3(C)C)[C@]1(OC(C)=O)CO[C@@H]1C[C@@H]2O [Paclitaxel, reference compound] | – | – | – | – | – | – | 4.8 ± 2.1 nM | – | – | – | – | – | – | 2000 ± 150 nM | – | 417 | MGI (metastasis growth inhibition) [10]: 35.0%; less active against the resistant MES-SA/Dx5 cells ([7]; vs MES-SA): ~400 times; Tumor Growth Inhibition (%) Reference Agent [11]: 53%; Tumor Regression (#/total) Reference Agent [11]: 1/10
